The experiment can be described thus: Acridine orange self-association (AO-AO dimer), spectrofluorometry λem 530 nm. The conditions noted are these: hydrochloride. The experiment is classed as binding. How it is done:
Association constants were calculated using a modification of an equation described by Zaini et al. (1999) to determine equilibrium constants for weakly bound complexes by absorbance spectrophotometry. By definition K=Xd/(Xm* Xm), where K is the binding constant Kassoc, Xd is the concentration of the AO dimer and Xm is the concentration of the AO monomer. Conservation of mass gives Xt=Xm+2*Xd, where Xt is the total concentration of AO in solution. Rearranging the conservation of mass equation gives Xm=Xt−2*Xd, and substituting into the equation for Kassoc and rearranging gives Equation 4: Kassoc(Xt*Xt−4*Xt*Xd+4*Xd*Xd)−Xd=0 EQUATION 4:
Rearranging gives: Xd*Xd−(Xt+1/(4*.Kassoc)*Xd+Xt*Xt/4=0 EQUATION5:
Applying the quadratic formula (X=[−B±SQRT(B^2−4AC]/2A) to Equation 3-5 and taking a physically reasonable root gives Equation 3-6: Xd=[Xt+1/(4*K)−SQRT(Xt/(2*K)+1/[…])]/2 EQUATION 6:
Where SQRT ( ) indicates taking the square root of the content of the parentheses. The fluorescence values at λem 530 nm (F530) is a function of Xt and F530=Xd*ε, where “ε” is the fluorescence yield of the dimer. The equation was solved by non-linear least squares using Prism™ software and binding constants determined. Concentrations of the reactants were adjusted for dilution whereas AO concentrations are reported without adjustment for dilution. Fluorescence values (fi) are reported as raw data normalized to scale and not adjusted by a dilution factor following aliquot additions. Absorbance data taken at 468 nm was also used to calculate the Kassoc for the AO-AO dimer using Equation 6.
The error bars shown standard deviation unless obscured by legend symbols (n=4). The results also indicate the effect of a physiological concentration of NaCl [150 mM] on the fluorescence of AO at both λem 530 nm (green) and λem 635 nm (red) over a range of AO concentrations from 0.5 μM to 10.0 μM. At an AO concentration of between 5-6 μM, the amplitude of green fluorescence at λem 530 nm increases abruptly. The red fluorescence (λem 635 nm) also increases abruptly between 5-6 μM. However, the magnitude of the increase at λem 635 nm is proportionally less than that found at λem 530 nm. As the concentration of AO increases from 5 μM to 6 μM, the mean fluorescence values were changed from 457±16 to 5,197 ±289 at λem 530 nm and from 174±4 to 1,371±41 at λem 635 nm (n=4). […] The example shown in FIG. 3-2B depicts the binding plot calculated at λem 530 nm for the molecular association of AO with itself in the absence of and in the presence of NaCl. The association constants (Kassoc) for AO derived from these two plots are 118,000±16,120 M^−1 (R^2=0.98) in the presence of NaCl [150 mM] and 37,410±4,758 M^−1(R^2=0.97) in the absence of NaCl. Error bars denote standard deviation unless hidden by legend symbols (n=4). The presence of 150 mM NaCl has no significant effect on the fluorescence intensity of AO at either λem 530 nm or λem 635 nm at AO concentrations of 6 μM and above.
Association constants were calculated for AO self-association by assuming the fluorescence values derived at λem 530 nm reflect the extent of dimer formation. Association constants (Kassoc) were calculated from the change in mean fluorescence values (delta fluorescence) at λem 530 nm (see FIG. 3-2B). At AO concentrations from 0.5 μM to 5 μM, Kassoc was determined to be 37,410±4,758 M^−1 (R^2=0.97) in the absence of NaCl and 118,000±16,120 M^−1 (R^2=0.98) in the presence of 150 mM NaCl (see FIG. 3-2B). For AO concentrations >5 μM, the association constants were determined to be 46,700±1,807 M^−1 (R^2=0.99) for AO alone and 41,820±3,671 M^−1 (R^2=0.99) for AO in the presence of NaCl. This indicates a significant AO concentration dependent difference in the association constant in the presence of 150 mM NaCl at low AO concentrations (<5 μM) but not a significant difference at AO concentrations above 5 μM.

Consider one molecule from patent publication US7662767B2, “Polynucleotide intercalator interceptors and inhibitors” (Materials Evolution and Development USA, Inc., priority 2000, dated 2010).

Values joined by “and” are separate entries in the source; they are usually repeats but may differ in a detail not shown here. Equal entries are not always repeated.

On to `CN(C)c1ccc2cc3ccc(N(C)C)cc3nc2c1.Cl` [AO, 3,6-bis[dimethylamino]acridine hydrochloride], for which the “K ± S.D.” value by setting is: (Fluorescence plus NaCl 150 mM, AO [0.5-5.0 μM]) 118,000±16,120 M^−1 and 118,000 M^−1; (Fluorescence plus NaCl 150 mM, AO [0.5-5.0 μM], listed as AO-AO) 118,000 ± 16,120 M^−1; (Fluorescence plus NaCl, AO [6.0-10.0 μM]) 41,820±3,671 M^−1; (Fluorescence plus NaCl, AO [6.0-10.0 μM], listed as AO-AO) 41,820 ± 3,671 M^−1; (Fluorescence, AO [0.5-5.0 μM], absence of NaCl) 37,410±4,758 M^−1 and 37,410 M^−1; (Fluorescence, AO [0.5-5.0 μM], absence of NaCl, listed as AO-AO) 37,410 ± 4,758 M^−1. The “K ± S.D.” value runs as follows: (Fluorescence, AO [6.0-10.0 μM], absence of NaCl) 46,700±1,807 M^−1; (Fluorescence, AO [6.0-10.0 μM], absence of NaCl, listed as AO-AO) 46,700 ± 1,807 M^−1.
